We go through one substance from patent publication EP0365087A1, “Immunotoxins for the treatment or prophylaxis of auto-immune diseases” (priority 1988, dated 1990).

The experiment relates to male Lewis-rats. The experiment is described as follows: DTH ear swelling after 65 kD-protein challenge in rats with adjuvant arthritis. The format is in vivo. The following applies: 0.01 mg/kg injections day 0-5 and day 8-12; 10 µg 65 kD-protein into ear day 22, swelling day 24; group average.

No end group written: not given here.

On to “TAVVALELQ-OH [peptide I, Thr-Ala-Val-Val-Ala-Leu-Glu-Leu-Gln-OH]”, for which the “% swelling” value was 2.8 ± 3.4%.
